Here are results for 29 molecules from patent US20250195530A1, “POLQ INHIBITORS” (ASTRAZENECA AB, priority 2022, published 2025).

Each structure is given as a SMILES string.

Experiment [1] relates to DLD-1 BRCA2−/− cells. In words: Homologous recombination synthetic lethal inhibition of proliferation, DLD-1 BRCA2-/- (Cell Titre Glo 3D). It is filed as cell-based. The following applies: Homo sapiens, DLD-1, 288 h, DLD-1 BRCA2−/− cells, 12 days; read-out: POLQ PD Prolif Lumin BRCA2 −/− mean pIC50 (converted). Put shortly:
(§1)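 Wild-type DLD-1 serves as the control for non-specific toxicity, and BRCA2-null DLD-1 as the homologous-recombination-deficient line. Both grew with compound from 10 μM down to 0.51 nM, re-dosed after 6 days. Luminescent ATP content (CellTiter-Glo 3D) was read after 7 or 12 days, respectively, to give IC50 values.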

The subject of experiment [2] is DLD-1 cells. In words: Inhibition of proliferation, DLD-1 BRCA2 wt control (Cell Titre Glo 3D). In kind it is cell-based. Particulars: Homo sapiens, DLD-1, 168 h, DLD-1 BRCA2 wt cells, 7 days; read-out: POLQ PD Prolif Lumin DLD1 mean pIC50 (converted). Put shortly: as §1

As for `CC1(Oc2ncnc3c2nc(-c2ccc(OCCCN)cc2Cl)n3Cc2ccccc2)CC1` [Example D6, 3-(4-(9-benzyl-6-(1-methylcyclopropoxy)-9H-purin-8-yl)-3-chlorophenoxy)propan-1-amine], the IC50 was 631 nM in experiment [1] and 5010 nM in experiment [2].
On to `CC(=O)NCCCOc1ccc(-c2nc3c(OC4(C)CC4)ncnc3n2Cc2ccccc2)c(Cl)c1` [Example D7, N-(3-(4-(9-benzyl-6-(1-methylcyclopropoxy)-9H-purin-8-yl)-3-chlorophenoxy)propyl)acetamide], for which the IC50 in experiment [1] is 126 nM; in experiment [2] it was 6310 nM.
For `CC(=O)N1CCN(CCOc2cccc(-c3nc4c(OC5(C)CC5)ncnc4n3Cc3ccccc3)c2Cl)CC1` [Example D8, 1-(4-(2-(3-(9-benzyl-6-(1-methylcyclopropoxy)-9H-purin-8-yl)-2-chlorophenoxy)ethyl)piperazin-1-yl)ethan-1-one], in that order: 50.1 nM and 6310 nM.
Consider `CN1CCC(Oc2cccc(-c3nc4c(OC5(C)CC5)ncnc4n3Cc3ccccc3)c2Cl)CC1` [Example D9, 9-benzyl-8-(2-chloro-3-((1-methylpiperidin-4-yl)oxy)phenyl)-6-(1-methylcyclopropoxy)-9H-purine], for which the IC50 was 158 nM in experiment [1] and 2000 nM in experiment [2].
As for `CC1(Oc2ncnc3c2nc(-c2cccc(OCCN4CCNCC4)c2Cl)n3Cc2ccccc2)CC1` [Example D10, 9-benzyl-8-(2-chloro-3-(2-(piperazin-1-yl)ethoxy)phenyl)-6-(1-methylcyclopropoxy)-9H-purine], the IC50 in experiment [1] is 126 nM; in experiment [2] it was 5010 nM.
For `CC1(Oc2ncnc3c2nc(-c2cccc(OC4CCNCC4)c2Cl)n3Cc2ccccc2)CC1` [Example D11, 9-benzyl-8-(2-chloro-3-(piperidin-4-yloxy)phenyl)-6-(1-methylcyclopropoxy)-9H-purine], in that order: 251 nM and 3160 nM.
Turning to `CN1CCN(CCOc2cccc(-c3nc4c(OC5(C)CC5)ncnc4n3Cc3ccccc3)c2Cl)CC1` [Example D12, 9-benzyl-8-(2-chloro-3-(2-(4-methylpiperazin-1-yl)ethoxy)phenyl)-6-(1-methylcyclopropoxy)-9H-purine], the IC50 in experiment [1] was 50.1 nM; in experiment [2] it was 5010 nM.
For `CC1(Oc2ncnc3c2nc(-c2ccc(OCCN4CCNC(=O)C4)cc2Cl)n3Cc2ccccc2)CC1` [Example D15, 4-(2-(4-(9-benzyl-6-(1-methylcyclopropoxy)-9H-purin-8-yl)-3-chlorophenoxy)ethyl)piperazin-2-one], in that order: 79.4 nM and over 10000 nM.
For `CC1(Oc2ncnc3c2nc(-c2ccc(OC[C@H]4CCN4)cc2Cl)n3Cc2ccccc2)CC1` [Example D16, (R)-8-(4-(azetidin-2-ylmethoxy)-2-chlorophenyl)-9-benzyl-6-(1-methylcyclopropoxy)-9H-purine], in that order: 158 nM and 3980 nM.
For `CC1(Oc2ncnc3c2nc(-c2ccc(O[C@H]4CCNC4)cc2Cl)n3Cc2ccccc2)CC1` [Example D17, (S)-9-benzyl-8-(2-chloro-4-(pyrrolidin-3-yloxy)phenyl)-6-(1-methylcyclopropoxy)-9H-purine], in that order: 100 nM and 3160 nM.
For the molecule `CC1(Oc2ncnc3c2nc(-c2ccc(OCCCN4CCNCC4)cc2Cl)n3Cc2ccccc2)CC1` [Example D18, 9-benzyl-8-(2-chloro-4-(3-(piperazin-1-yl)propoxy)phenyl)-6-(1-methylcyclopropoxy)-9H-purine], the figures for the IC50 in experiment [1] and in experiment [2] were 126 nM and 3160 nM, respectively.
In the case of `CC1(Oc2ncnc3c2nc(-c2ccc(OCC4(F)CNC4)cc2Cl)n3Cc2ccccc2)CC1` [Example D19, 9-benzyl-8-(2-chloro-4-((3-fluoroazetidin-3-yl)methoxy)phenyl)-6-(1-methylcyclopropoxy)-9H-purine], the IC50 in experiment [1] is 501 nM; in experiment [2], 5010 nM.
The corresponding values for `CN(C)C(=O)COc1ccc(-c2nc3c(OC4(C)CC4)ncnc3n2Cc2ccccc2)c(Cl)c1` [Example D20, 2-(4-(9-benzyl-6-(1-methylcyclopropoxy)-9H-purin-8-yl)-3-chlorophenoxy)-N,N-dimethylacetamide] are 200 nM and over 10000 nM.
As to `CNC(=O)COc1ccc(-c2nc3c(OC4(C)CC4)ncnc3n2Cc2ccccc2)c(Cl)c1` [Example D21, 2-(4-(9-benzyl-6-(1-methylcyclopropoxy)-9H-purin-8-yl)-3-chlorophenoxy)-N-methylacetamide], the IC50 in experiment [1] was 126 nM; in experiment [2], over 10000 nM.
For `CC(=O)N1CCN(CCCOc2ccc(-c3nc4c(OC5(C)CC5)ncnc4n3Cc3ccccc3)c(Cl)c2)CC1` [Example D22, 1-(4-(3-(4-(9-benzyl-6-(1-methylcyclopropoxy)-9H-purin-8-yl)-3-chlorophenoxy)propyl)piperazin-1-yl)ethan-1-one], in that order: 126 nM and over 10000 nM.
For `CC1(Oc2ncnc3c2nc(-c2ccc(OCCN)cc2Cl)n3Cc2ccccc2)CC1` [Example D23, 2-(4-(9-benzyl-6-(1-methylcyclopropoxy)-9H-purin-8-yl)-3-chlorophenoxy)ethan-1-amine], in that order: 794 nM and 7940 nM.
For `CC1(Oc2ncnc3c2nc(-c2ccc(OCC(=O)O)cc2Cl)n3Cc2ccccc2)CC1` [Example D24, 2-(4-(9-benzyl-6-(1-methylcyclopropoxy)-9H-purin-8-yl)-3-chlorophenoxy)acetic acid], in that order: over 10000 nM and over 10000 nM.
Turning to `CC1(Oc2ncnc3c2nc(-c2ccc(OC[C@H]4CCCN4)cc2Cl)n3Cc2ccccc2)CC1` [Example D25, (R)-9-benzyl-8-(2-chloro-4-(pyrrolidin-2-ylmethoxy)phenyl)-6-(1-methylcyclopropoxy)-9H-purine], the IC50 in experiment [1] was 100 nM; in experiment [2] it was 2510 nM.
Turning to `CC1(Oc2ncnc3c2nc(-c2ccc(OCC(N)=O)cc2Cl)n3Cc2ccccc2)CC1` [Example D27, 2-(4-(9-benzyl-6-(1-methylcyclopropoxy)-9H-purin-8-yl)-3-chlorophenoxy)acetamide], the IC50 in experiment [1] was 100 nM; in experiment [2], over 10000 nM.
`CC1(Oc2ncnc3c2nc(-c2ccc(OCC(=O)NCCO)cc2Cl)n3Cc2ccccc2)CC1` [Example D28, 2-(4-(9-benzyl-6-(1-methylcyclopropoxy)-9H-purin-8-yl)-3-chlorophenoxy)-N-(2-hydroxyethyl)acetamide]: the IC50 in experiment [1] was 79.4 nM; in experiment [2], over 10000 nM.
The corresponding values for `CC1(Oc2ncnc3c2nc(-c2ccc(OCCNCC(=O)O)cc2Cl)n3Cc2ccccc2)CC1` [Example D29, (2-(4-(9-benzyl-6-(1-methylcyclopropoxy)-9H-purin-8-yl)-3-chlorophenoxy)ethyl)glycine] are 5010 nM and over 10000 nM.
For `CN(CCOc1ccc(-c2nc3c(OC4(C)CC4)ncnc3n2Cc2ccccc2)c(Cl)c1)CC(=O)O` [Example D30, N-(2-(4-(9-benzyl-6-(1-methylcyclopropoxy)-9H-purin-8-yl)-3-chlorophenoxy)ethyl)-N-methylglycine], in that order: 1260 nM and over 10000 nM.
The corresponding values for `CC1(Oc2ncnc3c2nc(-c2ccc(O[C@H]4CNC[C@H]4F)cc2Cl)n3Cc2ccccc2)CC1` [Example D31, 9-benzyl-8-(2-chloro-4-(((3S,4R)-4-fluoropyrrolidin-3-yl)oxy)phenyl)-6-(1-methylcyclopropoxy)-9H-purine] are 200 nM and 7940 nM.
Turning to `CC1(Oc2ncnc3c2nc(-c2ccc(O[C@@H]4CCCNC4)cc2Cl)n3Cc2ccccc2)CC1` [Example D32, (R)-9-benzyl-8-(2-chloro-4-(piperidin-3-yloxy)phenyl)-6-(1-methylcyclopropoxy)-9H-purine], the figures for the IC50 in experiment [1] and in experiment [2] were 126 nM and 6310 nM, respectively.
Turning to `CC1(Oc2ncnc3c2nc(-c2ccc(OC4CCNCC4)cc2Cl)n3Cc2ccccc2)CC1` [Example D33, 9-benzyl-8-(2-chloro-4-(piperidin-4-yloxy)phenyl)-6-(1-methylcyclopropoxy)-9H-purine], the IC50 in experiment [1] was 63.1 nM; in experiment [2], 3160 nM.
For `CC1(Oc2ncnc3c2nc(-c2ccc(OC4CC5(CNC5)C4)cc2Cl)n3Cc2ccccc2)CC1` [Example D34, 8-(4-((2-azaspiro[3.3]heptan-6-yl)oxy)-2-chlorophenyl)-9-benzyl-6-(1-methylcyclopropoxy)-9H-purine], in that order: 200 nM and 3980 nM.
`CC1(Oc2ncnc3c2nc(-c2ccc(OC4CNC4)cc2Cl)n3Cc2ccccc2)CC1` [Example D35, 8-(4-(azetidin-3-yloxy)-2-chlorophenyl)-9-benzyl-6-(1-methylcyclopropoxy)-9H-purine]: the IC50 in experiment [1] was 501 nM; in experiment [2] it was 3980 nM.
For `CN1CCN(CCOc2ccc(-c3nc4c(OC5(C)CC5)ncnc4n3Cc3ccccc3Cl)c(Cl)c2)CC1` [Example E1, 8-(2-chloro-4-(2-(4-methylpiperazin-1-yl)ethoxy)phenyl)-9-(2-chlorobenzyl)-6-(1-methylcyclopropoxy)-9H-purine], in that order: 31.6 nM and 2510 nM.
The corresponding values for `CN1CCN(CCOc2ccc(-c3nc4c(OC5(C)CC5)ncnc4n3Cc3cccc(Cl)c3)c(Cl)c2)CC1` [Example E2, 8-(2-chloro-4-(2-(4-methylpiperazin-1-yl)ethoxy)phenyl)-9-(3-chlorobenzyl)-6-(1-methylcyclopropoxy)-9H-purine] are 25.1 nM and 3160 nM.
